Source: the supplement of paper PMC10307832

Key:
Assay in all cases: relative viability (nuclei count vs DMSO), 5 days (fraction); higher = more cells survive
Ibrutinib = compound: C=CC(=O)N1CCC[C@@H](n2nc(-c3ccc(Oc4ccccc4)cc3)c3c(N)ncnc32)C1 [Ibrutinib]
Summary of the method: (§1)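 In 1536-well plates, lung cancer cell lines rested overnight at 37 °C before five library-drug doses (not always all listed), √10 apart, were pinned onto vehicle-anchored plates. Nuclei were counted with MetaXpress from 4× Hoechst images taken after 5 days without medium change. Viability compares treated-well with vehicle-well nuclei as a median over plates, and plates needed control CV below 25% plus at least one doubling to pass.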

PAC-1 = compound: C=CCc1cccc(/C=N/NC(=O)CN2CCN(Cc3ccccc3)CC2)c1O [PAC-1]
Summary of the method: as §1

BMX-IN-1 = compound: C=CC(=O)Nc1cc(-n2c(=O)ccc3cnc4ccc(-c5ccc(NS(C)(=O)=O)cc5)cc4c32)ccc1C [BMX-IN-1]
Summary of the method: as §1

PAC-1 + Foretinib = compound: C=CCc1cccc(/C=N/NC(=O)CN2CCN(Cc3ccccc3)CC2)c1O [PAC-1] + COc1cc2c(Oc3ccc(NC(=O)C4(C(=O)Nc5ccc(F)cc5)CC4)cc3F)ccnc2cc1OCCCN1CCOCC1 [Foretinib] (partner 0.25 µM)
Summary of the method: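 One day after seeding in 1536-well plates, lung cancer cell lines were dosed by pin tool. Dosing was either single-drug or a fixed anchor-drug dose plus five library-drug doses (not always all listed) in √10 steps. After 5 days, nuclei were stained in one fix-and-stain step and counted on 4× images, and relative viability is the nuclei count of treated wells over that of vehicle wells, given as the median of duplicate plates.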

| Cell Line | relative viability (Ibrutinib; 0.005 µM) | relative viability (Ibrutinib; 0.01581 µM) | relative viability (Ibrutinib; 0.05 µM) | relative viability (Ibrutinib; 0.1581 µM) | relative viability (Ibrutinib; 0.5 µM) | relative viability (PAC-1; 0.02 µM) | relative viability (PAC-1; 0.06325 µM) | relative viability (PAC-1; 0.2 µM) | relative viability (PAC-1; 2 µM) | relative viability (BMX-IN-1; 0.02 µM) | relative viability (BMX-IN-1; 0.2 µM) | relative viability (BMX-IN-1; 0.6325 µM) | relative viability (BMX-IN-1; 2 µM) | relative viability (PAC-1 + Foretinib; first compound 0.02 µM) | relative viability (PAC-1 + Foretinib; first compound 0.06325 µM) | relative viability (PAC-1 + Foretinib; first compound 0.2 µM) | relative viability (PAC-1 + Foretinib; first compound 2 µM) |
| --- | --- | --- | --- | --- | --- | --- | --- | --- | --- | --- | --- | --- | --- | --- | --- | --- | --- |
| NCI-H1755 | 0.988 | 1.03 | 1.02 | 0.994 | 0.969 | 1.02 | 0.958 | 0.963 | 0.995 | 1.01 | 1.1 | 1.08 | 0.984 | 0.948 | 0.976 | 0.948 | 0.949 |
| NCI-H1793 |  | 0.831 | 0.732 | 0.631 | 0.538 | 0.847 | 0.934 | 0.872 | 1.01 | 1.13 | 0.995 | 1.13 | 1.05 | 0.651 | 0.504 | 0.646 | 0.559 |
| NCI-H1915 | 0.96 | 0.971 | 1.01 | 0.978 | 1.05 | 0.955 | 0.981 | 0.934 | 1.07 | 1.08 | 1.06 | 1.07 | 1.08 | 1.09 | 1.08 | 1.02 | 1.08 |
| NCI-H1944 | 0.887 | 0.851 | 0.858 | 0.772 | 0.832 | 0.964 | 0.947 | 0.902 | 1.02 | 1.07 | 1.08 | 1.18 | 0.947 | 0.882 | 0.802 | 0.783 | 0.891 |
| NCI-H1975 | 0.906 | 0.781 | 0.827 | 0.91 | 0.419 | 0.97 | 0.957 | 0.994 | 1.08 | 1.17 | 0.965 | 1.14 | 0.872 | 0.933 | 0.947 | 1.01 | 0.932 |
| NCI-H1993 | 0.617 | 0.822 |  | 0.733 | 0.61 | 0.911 | 0.986 | 0.891 | 0.963 | 1.01 | 1.09 | 0.973 | 0.882 | 0.718 | 0.746 | 0.608 | 0.826 |
| NCI-H2009 | 1.14 | 0.971 | 0.978 | 0.962 | 1.09 | 0.978 | 1.03 | 0.94 | 0.99 | 1.08 | 1.07 | 1.09 | 1.02 | 1.2 | 1.23 | 1.21 | 1.19 |
| NCI-H2023 | 0.89 | 0.849 | 0.891 | 1.03 | 0.943 | 0.973 | 0.919 | 0.905 | 1.01 | 1.37 | 1.19 | 1.13 | 1.08 | 0.824 | 0.789 | 0.911 | 0.773 |
| NCI-H2085 | 0.997 | 0.974 | 0.902 | 0.882 | 0.905 | 1.05 | 1.02 | 0.989 | 0.98 | 1.03 | 0.997 | 1 | 1.01 | 0.815 | 0.932 | 0.998 | 1.07 |
| NCI-H2087 | 1.13 | 0.931 | 1.19 |  | 0.99 | 0.872 | 1.06 | 0.929 | 1.04 | 1.03 | 1.14 | 1.14 | 1.15 | 0.787 | 1.22 | 0.959 | 1.18 |
| NCI-H2126 | 0.68 | 0.969 | 0.972 | 0.9 | 0.887 | 0.938 | 0.948 | 1.02 | 1.06 | 1.09 | 1.05 | 1.08 | 1.02 | 1.28 | 1.25 | 1.15 | 1.12 |
| NCI-H2170 | 0.678 | 0.85 | 0.803 | 0.939 | 0.462 | 1.02 | 0.978 | 0.99 | 0.962 | 1.14 | 1.05 | 1.05 | 1.02 | 1.08 | 0.961 | 0.969 | 1.01 |
| NCI-H2228 | 1.01 | 0.752 | 1.1 | 0.872 | 0.868 | 0.98 | 1.15 | 0.924 | 1.09 | 1.2 | 1.18 | 0.975 | 1.05 | 0.903 | 0.862 | 0.888 | 0.786 |
| NCI-H2342 | 0.655 | 0.875 | 0.888 | 0.842 | 0.823 | 1.09 | 0.91 | 0.872 | 1.15 | 1.04 | 1.03 | 1.06 | 0.939 | 1.15 | 1.04 | 1.03 | 1.05 |
| NCI-H2347 | 1.01 | 1.06 | 1.02 | 0.812 | 1.04 | 1.01 | 1.02 | 0.979 | 1.05 | 1.04 | 0.967 | 1.14 | 1.09 | 0.786 | 0.771 | 0.601 | 1.3 |
| NCI-H2405 | 0.924 |  | 0.832 | 0.713 | 0.973 | 1.04 | 1 | 1.01 | 1.09 | 0.982 | 1.01 | 1.09 | 1.04 | 1.04 | 1.04 | 1.02 | 1.1 |
| NCI-H3122 | 1.05 | 0.989 | 0.996 | 0.895 | 1 | 0.991 | 0.989 | 0.965 | 0.965 | 1.07 | 1.06 | 1.04 | 1.04 | 0.958 | 0.976 | 0.967 | 0.89 |
| PC-3 [JPC-3] | 1.03 | 0.97 | 0.906 | 0.912 | 0.638 | 1.06 | 1.08 | 1.05 | 1.03 | 1.08 | 1.12 | 1.11 | 1.06 | 1.06 | 1.02 | 0.996 | 0.994 |
| PC-14 | 1.08 | 0.918 | 0.952 | 1.02 | 0.571 | 1.03 | 1.03 | 0.995 | 0.988 | 1.12 | 1.06 | 1.22 | 1 | 0.932 | 0.939 | 0.935 | 0.92 |
| RERF-LC-KJ | 1.03 | 0.85 | 0.942 | 0.989 | 0.849 | 1.08 | 1 | 0.947 | 0.942 | 1.14 | 1.04 | 1.03 | 1.03 | 0.961 | 0.854 | 0.845 | 0.904 |
| SK-LU-1 | 0.944 | 0.954 | 0.987 | 1.02 |  | 1 | 1.02 | 0.975 | 0.999 | 1.22 | 1.23 | 1.16 | 1.1 | 0.834 | 0.797 | 0.78 | 0.78 |
| SW 900 | 0.578 | 0.693 | 0.873 | 0.708 | 0.845 | 0.766 | 1.02 | 0.815 | 0.792 | 0.971 | 0.886 | 0.911 | 1.09 | 1.14 | 0.976 | 0.864 | 0.717 |
| SW 1573 | 0.912 | 0.924 |  | 0.94 | 0.974 | 0.965 | 1.03 | 1.01 | 1.15 | 1.13 | 1.08 | 1.09 | 0.904 | 0.828 | 0.741 | 0.912 | 0.979 |
| UMC-11 | 0.75 | 0.931 | 1.01 | 0.937 | 0.922 | 1 | 0.969 | 1 | 1.01 | 1.11 | 1.1 | 1.09 | 1.03 | 1.06 | 1.05 | 1.04 | 1.01 |
